Reference: patent US20250214978A1, “AT2R AGONIST” (WUHAN HUMANWELL INNOVATIVE DRUG RESEARCH AND DEVELOPMENT …, priority 2022, published 2025)

Assays:
[1] = biological target: AT2R (Homo sapiens (Human), UniProt P50052); experiment: Binding assay of compounds to AT2R (Tag-lite HTRF ligand binding kit); conditions: 1 hour incubation at room temperature
Protocol: The assay was performed in accordance with the instruction manual of Angiotensin AT2 Receptor Ligand Binding Assay Kit (#C1TT1AT2, Cisbio). First, a compound stock solution (10 mM) was diluted in a gradient at a 5× dilution ratio (including 10 concentrations, each with two replicates). 160 nL of compounds at different concentrations was added to a 384-well plate. 40 μL of 1×TLB was added to each well, and the mixture was shaken at room temperature for 15 minutes. 15 mL centrifuge tube added with 5 mL of 1×TLB was prepared in advance. The frozen labeled cells were thawed in a water bath at 37° C. (for 1 to 2 minutes), and the thawed cells were quickly transferred to the above 15 mL centrifuge tube. The mixture was mixed well and centrifuged at 1,000 g at room temperature for 5 minutes. The supernatant was removed, and the cells were resuspended by adding 2.7 mL 1×TLB. A new 384-well plate was taken, and 10 μL of mixed cells were added into the corresponding wells according to the assay design. 5 μL of 4× compound solution and 5 μL of 4× Tag-lite red fluorescent labeled ligand were added to each well. After incubation at room temperature for 1 hour, data were read using EnVision with an HTRF mode. The excitation light intensities at 665 nM and 615 nM in each well were read respectively, and the ratio was calculated (Ratio=A665nMIB615 nM). The IC50 value was calculated by means of GraphPad Prism8 software, where X represents logarithmic value of compound concentration; and Y represents ratio of A665 nM/B615 nM.

[2] = biological target: CYP2C9 (Homo sapiens (Human), UniProt P11712); experiment: CYP inhibition assay in mixed human liver microsomes; format: in vitro ADME; conditions: mixed (pooled) human liver microsomes, read-out: Inhibition rate % CYP2C9
[3] = biological target: CYP2C19 (Homo sapiens (Human), UniProt P33261); experiment: as above; format: in vitro ADME; conditions: mixed (pooled) human liver microsomes, read-out: Inhibition rate % CYP2C19
[4] = biological target: CYP2C8 (Homo sapiens (Human), UniProt P10632); experiment: as above; format: in vitro ADME; conditions: mixed (pooled) human liver microsomes, read-out: Inhibition rate % CYP2C8
[5] = biological target: CYP1A2 (Homo sapiens (Human), UniProt P05177); experiment: as above; format: in vitro ADME
[6] = biological target: CYP3A4 (Homo sapiens (Human), UniProt P08684); experiment: as above; format: in vitro ADME; conditions: mixed (pooled) human liver microsomes, probe midazolam, read-out: Inhibition rate % CYP3A4 (midazolam)
[7] = biological target: CYP2B6 (Homo sapiens (Human), UniProt P20813); experiment: as above; format: in vitro ADME; conditions: mixed (pooled) human liver microsomes, read-out: Inhibition rate % CYP2B6
[8] = Liver microsome stability assay; format: in vitro ADME; conditions: Mouse liver microsomes; read-out: T1/2 (min) Mouse

CYP1A2, sequence (P05177 whole entry): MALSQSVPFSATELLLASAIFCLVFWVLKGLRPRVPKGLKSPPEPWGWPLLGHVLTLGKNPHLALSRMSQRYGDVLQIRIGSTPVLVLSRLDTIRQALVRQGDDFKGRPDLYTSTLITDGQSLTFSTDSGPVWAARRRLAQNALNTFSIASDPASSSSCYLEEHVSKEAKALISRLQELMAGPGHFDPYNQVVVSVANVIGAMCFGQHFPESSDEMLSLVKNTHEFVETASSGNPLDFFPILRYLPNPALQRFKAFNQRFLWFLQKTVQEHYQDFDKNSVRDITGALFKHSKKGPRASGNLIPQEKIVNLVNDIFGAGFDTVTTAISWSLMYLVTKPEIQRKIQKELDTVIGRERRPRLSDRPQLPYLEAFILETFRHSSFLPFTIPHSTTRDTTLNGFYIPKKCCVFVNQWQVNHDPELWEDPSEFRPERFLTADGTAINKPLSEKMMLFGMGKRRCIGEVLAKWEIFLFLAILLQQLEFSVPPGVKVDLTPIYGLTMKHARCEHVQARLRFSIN
CYP2C19, sequence (P33261 whole entry): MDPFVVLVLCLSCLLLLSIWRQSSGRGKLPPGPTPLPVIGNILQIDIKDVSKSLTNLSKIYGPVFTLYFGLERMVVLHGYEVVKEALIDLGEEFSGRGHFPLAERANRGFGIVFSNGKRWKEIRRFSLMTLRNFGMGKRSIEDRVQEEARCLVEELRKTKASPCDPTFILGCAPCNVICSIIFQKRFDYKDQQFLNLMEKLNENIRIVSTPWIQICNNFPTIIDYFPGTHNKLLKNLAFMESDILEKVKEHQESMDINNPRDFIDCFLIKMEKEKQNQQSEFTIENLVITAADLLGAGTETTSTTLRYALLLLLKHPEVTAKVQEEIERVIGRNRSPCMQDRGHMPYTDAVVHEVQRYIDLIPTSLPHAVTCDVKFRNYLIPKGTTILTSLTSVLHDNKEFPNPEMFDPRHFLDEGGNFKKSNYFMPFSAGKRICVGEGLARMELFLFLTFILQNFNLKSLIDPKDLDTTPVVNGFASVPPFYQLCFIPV
AT2R, sequence (P50052 whole entry): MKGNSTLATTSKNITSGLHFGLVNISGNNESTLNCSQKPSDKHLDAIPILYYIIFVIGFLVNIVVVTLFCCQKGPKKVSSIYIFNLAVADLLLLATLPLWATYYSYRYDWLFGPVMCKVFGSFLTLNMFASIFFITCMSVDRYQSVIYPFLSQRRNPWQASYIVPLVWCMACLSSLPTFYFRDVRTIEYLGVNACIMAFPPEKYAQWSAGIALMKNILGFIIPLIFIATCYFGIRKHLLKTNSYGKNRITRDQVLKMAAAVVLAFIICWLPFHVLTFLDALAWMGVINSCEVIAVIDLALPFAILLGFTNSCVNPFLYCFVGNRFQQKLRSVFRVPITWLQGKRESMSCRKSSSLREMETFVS
CYP2C8, sequence (P10632 whole entry): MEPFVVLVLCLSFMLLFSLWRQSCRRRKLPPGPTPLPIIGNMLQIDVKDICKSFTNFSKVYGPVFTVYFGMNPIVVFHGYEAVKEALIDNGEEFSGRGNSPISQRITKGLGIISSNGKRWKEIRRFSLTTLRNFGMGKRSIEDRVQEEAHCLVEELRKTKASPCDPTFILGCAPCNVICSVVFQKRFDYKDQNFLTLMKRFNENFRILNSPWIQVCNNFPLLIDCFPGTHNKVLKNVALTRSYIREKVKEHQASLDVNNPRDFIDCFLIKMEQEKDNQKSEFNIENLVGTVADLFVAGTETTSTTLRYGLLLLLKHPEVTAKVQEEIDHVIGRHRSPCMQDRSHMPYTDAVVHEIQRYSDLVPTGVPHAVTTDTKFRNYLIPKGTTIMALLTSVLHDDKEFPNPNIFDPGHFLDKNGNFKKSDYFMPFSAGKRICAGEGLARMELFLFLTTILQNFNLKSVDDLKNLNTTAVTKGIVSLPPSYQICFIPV
CYP2B6, sequence (P20813 whole entry): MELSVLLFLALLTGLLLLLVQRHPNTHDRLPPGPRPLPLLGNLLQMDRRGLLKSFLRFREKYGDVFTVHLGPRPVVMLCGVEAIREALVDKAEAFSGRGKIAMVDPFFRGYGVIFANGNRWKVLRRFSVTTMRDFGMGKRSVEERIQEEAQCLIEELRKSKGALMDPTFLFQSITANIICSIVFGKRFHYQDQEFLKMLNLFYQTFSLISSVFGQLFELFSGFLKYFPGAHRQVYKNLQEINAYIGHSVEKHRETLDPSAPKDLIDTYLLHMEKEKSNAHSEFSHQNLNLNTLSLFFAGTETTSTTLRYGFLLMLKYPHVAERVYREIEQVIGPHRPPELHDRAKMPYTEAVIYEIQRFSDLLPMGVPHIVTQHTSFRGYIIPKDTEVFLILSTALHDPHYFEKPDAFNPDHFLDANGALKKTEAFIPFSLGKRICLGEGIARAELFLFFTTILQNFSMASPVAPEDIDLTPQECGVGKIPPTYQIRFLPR
CYP3A4, sequence (P08684 whole entry): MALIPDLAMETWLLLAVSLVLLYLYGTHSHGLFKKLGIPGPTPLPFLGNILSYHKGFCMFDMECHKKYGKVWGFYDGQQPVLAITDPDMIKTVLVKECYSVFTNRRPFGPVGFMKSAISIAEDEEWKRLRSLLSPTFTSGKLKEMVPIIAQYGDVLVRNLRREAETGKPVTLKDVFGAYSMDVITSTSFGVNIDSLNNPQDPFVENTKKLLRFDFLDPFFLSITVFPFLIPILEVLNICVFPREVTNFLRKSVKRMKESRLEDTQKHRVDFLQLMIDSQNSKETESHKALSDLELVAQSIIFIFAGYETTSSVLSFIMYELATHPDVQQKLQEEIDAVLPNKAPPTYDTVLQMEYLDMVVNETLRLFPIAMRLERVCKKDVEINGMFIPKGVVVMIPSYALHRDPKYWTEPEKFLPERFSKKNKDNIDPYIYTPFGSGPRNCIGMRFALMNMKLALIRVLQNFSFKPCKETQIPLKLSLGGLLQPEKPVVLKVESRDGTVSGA
CYP2C9, sequence (P11712 whole entry): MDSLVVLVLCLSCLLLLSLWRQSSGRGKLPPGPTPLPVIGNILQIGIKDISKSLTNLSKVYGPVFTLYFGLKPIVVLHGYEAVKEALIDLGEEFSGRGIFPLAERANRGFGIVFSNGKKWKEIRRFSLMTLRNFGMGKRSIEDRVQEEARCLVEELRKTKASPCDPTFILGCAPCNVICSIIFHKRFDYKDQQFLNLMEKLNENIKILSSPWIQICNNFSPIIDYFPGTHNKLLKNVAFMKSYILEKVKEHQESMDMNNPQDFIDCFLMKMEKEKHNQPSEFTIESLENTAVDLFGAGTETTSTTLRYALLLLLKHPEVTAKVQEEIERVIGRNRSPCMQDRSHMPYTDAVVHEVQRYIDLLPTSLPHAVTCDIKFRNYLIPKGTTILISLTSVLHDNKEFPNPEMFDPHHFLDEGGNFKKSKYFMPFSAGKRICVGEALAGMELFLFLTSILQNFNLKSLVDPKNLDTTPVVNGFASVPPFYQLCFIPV

COC(=O)NS(=O)(=O)c1sc(CC(C)C)c(C)c1-c1ccc(Cn2ccnc2Cl)cc1 [Compound I-34, Methyl ((3-(4-((2-chloro-1H-imidazol-1-yl)methyl)phenyl)-5-isobutyl-4-methylthiophen-2-yl)sulfonyl)carbamate]
IC50 [1]: 4.32 nM | inhibition at 10 µM [2]: 77.3% | inhibition at 10 µM [3]: 36.5% | inhibition at 10 µM [4]: 71.8% | inhibition at 10 µM [5]: 2.82% | inhibition at 10 µM [6]: 3.8% | inhibition at 10 µM [7]: 13.7% | half-life at 1 μM [8]: 61.9 min
